For series [1], the system named is N2a-SwedAPP cells. The series is described as follows: MTT viability assay in N2a-SwedAPP cells. Format: cell-based, murine. The note with it: mouse, 48 h. Here is the method: (§1) N2a-SwedAPP cells were obtained from Dr. Gopal Thinakaran (University of Chicago, Chicago, Ill., USA). N2a-SwedAPP cells were cultured in Dulbecco's modified Eagle's medium (DMEM) and OPTI-MEM medium in a 1:1 ratio with 5% FBS, 50 μg/mL penicillin, 50 μg/mL streptomycin and 200 μg/mL G418 as previously described in Thinakaran G, Teplow D B, Siman R, Greenberg B, Sisodia S S (1996) Metabolism of the “Swedish” amyloid precursor protein variant in neuro2a (N2a) cells. J Biol Chem 271: 9390-9397. N2a-SwedAPP cells were incubated at 37° C. in a 5% CO2/95% humidity incubator. Cells were seeded 24 hours prior to the treatments. When growth reached close to 90% of confluence, cells were transferred into DMEM with 1% FBS for loading extracts. The final concentration of DMSO in all experiments was 0.1%, and this concentration caused no cytotoxicity.
For the viability assay, N2a-SwedAPP cells were seeded in a 96-well plate (7000 cells/well and 5000 cells/well). […] Finally, optical intensity was measured using a BioRad plate reader at 570 nm and a reference of 620 nm. […]
N2a-SwedishAPP cells are widely used as a cellular model of Alzheimer's disease, because they express a high level of APP and Aβ. The effects of HLJDT and its components on viability of N2SwedAPP cells are monitored by using the MTT assay. […]

Series [2] deals with APP processing (F1-APP, pAPPThr668, CTFs, sAPPα, sAPPβ-sw) in N2a-SwedAPP cells. In words: Western blot of APP metabolic products in N2a-SwedAPP cells. The series is classed as cell-based, murine. The arrangement: key to Fl-APP (overall influence) / CTFs (overall influence) / sAPPα (overall influence) / sAPPβ (overall influence): ↓ decreased; ↑ increased; ? unchanged. The method, then:
as §1
To detect the levels of APP metabolic products, the cell lysates and the conditioned media were prepared as described in Durairajan S S K, Liu L F, Lu J H, Koo I, Maruyama K, Chung S K, Huang J D, Li M. (2011) Stimulation of non-amyloidogenic processing of amyloid-β protein precursor by cryptotanshinone involves activation and translocation of ADAM10 and PKC-α. J Alzheimer's Dis 25: 245-262, with minor modification. N2a-SwedAPP cells were seeded at a density of 4×10^5/mL in DMEM medium in a 6-well plate and cultured for 1 day. After transfer, cells were treated with different doses of RC, CP, FG and RS for 48 hours, then the extracellular media were collected for detection of sAPPα and sAPPβ-sw, and cells were harvested to quantify F1-APP and β-actin by Western blot analysis, as described previously by Durairajan et al. For intracellular APP, APP-CTFs and Aβ preparation, cells were washed with ice-cold PBS twice and solubilized in ice-cold RIPA buffer with protease inhibitor cocktail added. Lysates were collected and centrifuged at 16,000×g for 15 minutes at 4° C. The resulting supernatants were collected, and their protein concentrations were determined with bicinchoninic acid (BCA) protein assay reagent (Thermo Scientific, IL, USA). For sAPPα and sAPPβ-sw detection, the conditioned media are collected and frozen in liquid nitrogen, subjected to lyophilization at −40° C. under vacuum of 105 μbar for 2 days in order to remove all liquid. The conditioned media were standardized to total cell lysate protein.
For Western blot analysis from cell culture or mouse brain, 10-30 μg total protein is separated on 10% and 15% SDS-PAGE gels and blotted onto PVDF membranes for the detection of full length APP (F1-APP), CTFs, sAPPα, sAPPβ-sw, 3-actin and phosphorylated APP (pAPPThr668). After blocking with 5% skimmed milk, the blots are incubated with primary antibodies overnight at 4° C. with shaking. Blots are washed and incubated with HRP-conjugated secondary antibodies. The goat anti-mouse IgG is used when the primary antibody is 6E10 (1:1000), sAPPβ-sw (1:100), or anti-β-actin (1:5000), and the goat anti-rabbit IgG is used when the primary antibody is anti-CT15 (1:5000) or pAPPThr668 (1:1000). After incubation with HRP-conjugated secondary antibody, immunoblots are treated with ECL and developed using X-ray films (Fujifilm). Films are scanned, and the band intensity is analyzed using Image J software (NIH Image).
Stripped CT15 and 6E10 probed membranes are reincubated with pAPPThr668 and sAPPβ-sw 6A1 antibodies, respectively.
Western blotting of N2a-SwedAPP cells is used to test differences in the processing of Swedish mutant APP by HLJDT components. Several antibodies are used in Western blot analysis: CT15 recognizes full length APP (F1-APP), 6E10 identifies only α-secretase-cleaved APP i.e sAPPα, and the sAPPβ-sw specific for β-secretase cleavage of Swedish mutant APP.

Consider `O=c1cc(-c2ccccc2)oc2cc(O)c(O)c(O)c12` [baicalein], for which, in series [1], the “non-toxic concentration (highest concentration that shows greater than 90% cell viability)” value was determined as 12.5 µM. Besides, in series [2] (12.5 μM, 48 hours), the “maximal increase of CTFs, fold of basal release” value came to 2.36 fold; the “maximal increase of F1-APP, fold of basal release” value worked out at 1.68 fold; the “maximal increase of pAPPThr668, fold of basal release” value turned out to be 1.58 fold; the “maximal secretion of sAPPα, fold of basal release” value came out at 2.65 fold. For the same molecule, the “maximal secretion of sAPPβ-sw, fold of basal release” value in series [2] (12.5 μM, 48 hours) is on record as 1.70 fold. Also, in series [2] (N2a-SwedAPP cells), the “CTFs (overall influence)” value was “↑”, the “Fl-APP (overall influence)” value is “↑”, the “sAPPα (overall influence)” value is “↑” and the “sAPPβ (overall influence)” value is recorded as “↑”.

The values above are taken from patent US9375457B2, “Composition comprising Rhizoma coptidis, Cortex phellodendri and Fructus gardeniae and for treating neurodegenerative diseases” (Hong Kong Baptist University, priority 2013, dated 2016).
